Test results from patent US10844013B2, “Phenyl amino piperidine mTORC inhibitors and uses thereof” (Navitor Pharmaceuticals, Inc., priority 2016, dated 2020).

How the values were obtained:
[1] = tested on: pAKT (p-Akt 1/2/3 (Ser473)) in MCF-7 cells; assay: AlphaLISA Ultra pAKT assay; type: cell-based; settings: Homo sapiens, MCF7, 2 hours compound incubation
Procedure: Example 156: AlphaLISA Ultra pAKT Assay
(§1) Assay Protocol: • 1. MCF-7 cells in Corning 3701 plate and incubate for 20-24 hour. 16,000-20,000 cells will be seeded in 36 μL medium per well. • 2. Change the culture medium with fresh medium and incubate for another 2 hours. • 3. Add 12 μL (4×) compounds into the cell plate by HAMILTON. Final DMSO concentration is 0.5%. Incubate for 2 hours. • 4. Aspirate 38 j L by HAMILTON, 10 μL rest per well. • 5. Add 10 μL 2× lysis buffer using HAMILTON; total volume in wells is 20 μL. Allow cells to shake for 30 min. Cover plate by plastic foil and store plate at −80° C. up to analysis. • 6. Thaw cell lysate at RT and transfer 10 ul lysate to assay plate (Optiplate-384). • 7. Add 5 ul acceptor beads into assay plate and incubation for 2 hours • 8. Add 5 ul donor beads and incubation for 2 hours • 9. Count the plate by EnSpire Multimode Plate Reader

[2] = tested on: pS6K1 (p-p70 S6 Kinase (Thr389)) in MCF-7 cells; assay: AlphaLISA Ultra pS6K1 assay; type: cell-based; settings: Homo sapiens, MCF7, 2 h, 2 hours compound incubation
Procedure: Example 155: AlphaLISA Ultra pS6K1 assay
as §1, with “1. Seed” for “1.”, “20˜24” for “20-24”, “12,000˜16,000” for “16,000-20,000”, “μL” for “j L”

IC50 [1] [µM]	IC50 [2] [µM]	Compound
> 10	1 to 3	CCCN(c1cc(C(=O)N2CCN(c3ccccc3S(N)(=O)=O)CC2)c(C)cc1C)C1CCN(c2ccccc2C#N)CC1 [I-23, 2-(4-(5-((1-(2-Cyanophenyl)piperidin-4-yl)(propyl)amino)-2,4-dimethylbenzoyl)piperazin-1-yl)benzenesulfonamide]
> 10	1 to 3	Cc1cc(C)c(N(CC(N)=O)C2CCN(c3ccccc3C#N)CC2)cc1C(=O)N1CCN(c2ccccc2S(N)(=O)=O)CC1 [I-27, 2-((1-(2-Cyanophenyl)piperidin-4-yl)(2,4-dimethyl-5-(4-(2-sulfamoylphenyl)piperazine-1-carbonyl)phenyl)amino)acetamide]
> 10	1 to 3	Cc1cc(C)c(C(=O)N2CCN(c3ncccc3C(N)=O)CC2)cc1NC1CCN(c2ccccc2C#N)CC1 [I-28]
> 10	0.01 to 1	Cc1cc(C)c(C(=O)N2CCN(c3ccccc3C(N)=O)CC2)cc1NC1CCN(c2ccccc2C#N)CC1 [I-29]
> 10	0.01 to 1	Cc1cc(C)c(C(=O)N2CCN(c3ccccn3)[C@@H](CO)C2)cc1NC1CCN(c2ccccc2C#N)CC1 [I-30]
> 10	0.01 to 1	Cc1cc(C)c(C(=O)N2CCN(c3ccccc3)C(C(N)=O)C2)cc1NC1CCN(c2ccccc2C#N)CC1 (stereo not drawn) [I-31, 4-(5-{[1-(2-cyanophenyl)piperidin-4-yl]amino}-2,4-dimethylbenzoyl)-1-phenylpiperazine-2-carboxamide]
> 10	1 to 3	CNC(=O)C1CN(C(=O)c2cc(NC3CCN(c4ccccc4C#N)CC3)c(C)cc2C)CCN1c1ccccc1 (stereo not drawn) [I-32, 4-(5-{[1-(2-cyanophenyl)piperidin-4-yl]amino}-2,4-dimethylbenzoyl)-N-methyl-1-phenylpiperazine-2-carboxamide]
> 10	5 to 10	Cc1cc(C)c(C(=O)N2CCN(c3ccccc3)[C@@H](C)C2)cc1NC1CCN(c2ccccc2C#N)CC1 [I-33, (S)-2-(4-(2,4-Dimethyl-5-(3-methyl-4-phenylpiperazine-1-carbonyl)phenylamino)piperidin-1-yl)benzonitrile]
> 10	1 to 3	Cc1cc(C)c(C(=O)N2CCN(c3ccccn3)[C@@H](C)C2)cc1NC1CCN(c2ccccc2C#N)CC1 [I-34, 2-[4-[2,4-Dimethyl-5-[(3S)-3-methyl-4-(2-pyridyl)piperazine-1-carbonyl]anilino]-1-piperidyl]benzonitrile]
> 10	3 to 5	Cc1cccc(N2CCN(C(=O)c3cc(NC4CCN(c5ccccc5Cl)CC4)c(C)cc3C)CC2)n1 [I-35, (5-(1-(2-chlorophenyl)piperidin-4-ylamino)-2,4-dimethylphenyl) (4-(6-methylpyridin-2-yl)piperazin-1-yl) methanone]
> 10	5 to 10	Cc1cc(C)c(C(=O)N2CCN(c3ccc(F)cn3)CC2)cc1NC1CCN(c2ccccc2Cl)CC1 [I-36, (5-(1-(2-Chlorophenyl)piperidin-4-ylamino)-2,4-dimethylphenyl)(4-(5-fluoropyridin-2-yl)piperazin-1-yl)methanone]
> 10	1 to 3	Cc1cc(C)c(C(=O)N2CCN(c3ccccc3C#N)CC2)cc1NC1CCN(c2ccccc2Cl)CC1 [I-37, 2-(4-(5-(1-(2-Chlorophenyl)piperidin-4-ylamino)-2,4-dimethylbenzoyl)piperazin-1-yl)benzonitrile]
> 10	> 10	Cc1cc(C)c(C(=O)N2CCN(c3ccccc3)C(C(=O)O)C2)cc1NC1CCN(c2ccccc2C#N)CC1 (stereo not drawn) [I-39, 4-(5-{[1-(2-cyanophenyl)piperidin-4-yl]amino}-2,4-dimethylbenzoyl)-1-phenylpiperazine-2-carboxylic Acid]
> 10	0.01 to 1	Cc1cc(C)c(C(=O)N2CCN(c3ccccc3S(N)(=O)=O)CC2)c(C)c1NC1CCN(c2ccccc2C#N)CC1 [I-42]
> 10	1 to 3	C=CCN(c1cc(C(=O)N2CCN(c3ccccc3S(N)(=O)=O)CC2)c(C)cc1C)C1CCN(c2ccccc2C#N)CC1 [I-46, 2-(4-(5-(Allyl(1-(2-cyanophenyl)piperidin-4-yl)amino)-2,4-dimethylbenzoyl)piperazin-1-yl)benzenesulfonamide]
> 10	1 to 3	Cc1cc(C)c(C(=O)N2CCN(c3ccccc3)[C@H](C)C2)cc1NC1CCN(c2ccccc2C#N)CC1 [I-47, (R)-2-(4-(2,4-Dimethyl-5-(3-methyl-4-phenylpiperazine-1-carbonyl)phenylamino)piperidin-1-yl)benzonitrile]
> 10	1 to 3	CCN(c1cc(C(=O)N2CCN(c3ccccc3S(N)(=O)=O)CC2)c(C)cc1C)C1CCN(c2ccccc2C#N)CC1 [I-51, 2-(4-(5-((1-(2-Cyanophenyl)piperidin-4-yl)(ethyl)amino)-2,4-dimethylbenzoyl)piperazin-1-yl)benzenesulfonamide]

IC50 [1] [µM]	IC50 [2] [µM]	Compound
> 10	> 10	Cc1cc(C)c(C(=O)N2CCN(c3ccccc3S(N)(=O)=O)CC2)cc1NC1CCN(c2ccccc2C#N)CC1(C)C (stereo not drawn) [I-52, 2-(4-(5-(1-(2-Cyanophenyl)-3,3-dimethylpiperidin-4-ylamino)-2,4-dimethylbenzoyl)piperazin-1-yl)benzenesulfonamide]
> 10	0.01 to 1	Cc1cc(C)c(C(=O)N2CCN(c3ccccc3C#N)[C@@H](CO)C2)cc1NC1CCN(c2ccccc2C#N)CC1 [I-53]
> 10	1 to 3	Cc1cc(C)c(C(=O)N2CCN(c3ccccc3)[C@@H](CO)C2)cc1NC1CCN(c2ccccc2)CC1 [I-54]
> 10	1 to 3	Cc1cc(C)c(C(=O)N2CCN(c3ccccn3)CC2)cc1NC1CCN(c2ccccc2C#N)CC1 [I-55]
> 10	1 to 3	Cc1cc(C)c(C(=O)N2CCN(c3ccccc3C#N)CC2)cc1NC1CCN(c2ccccc2)CC1 [I-56]
> 10	1 to 3	Cc1cc(C)c(C(=O)N2CCN(c3ccccc3)CC2)cc1NC1CCN(c2ccccc2C#N)CC1 [I-57]
> 10	0.01 to 1	CNC(=O)C1CN(C(=O)c2cc(N(C)C3CCN(c4ccccc4C#N)CC3)c(C)cc2C)CCN1c1ccccc1 (stereo not drawn) [I-58]
> 10	3 to 5	Cc1cc(C)c(N(C)C2CCN(c3ccccc3C#N)CC2)cc1C(=O)N1CCN(c2ccccc2S(N)(=O)=O)CC1 [I-59]
> 10	0.01 to 1	Cc1cc(C)c(C(=O)N2CCN(c3ccccc3S(C)(=N)=O)CC2)cc1NC1CCN(c2ccccc2C#N)CC1 (stereo not drawn) [I-62, 2-(4-{[5-(4-{2-[imino(methyl)oxo-λ^6-sulfanyl]phenyl}piperazine-1-carbonyl)-2,4-dimethylphenyl]amino}piperidin-1-yl)benzonitrile]
> 10	0.01 to 1	Cc1cc(C)c(C(=O)N2CCN(c3ccccc3)C(CO)C2)cc1NC1CCN(c2ccccc2C#N)CC1 (stereo not drawn) [I-63, 2-[4-({5-[3-(Hydroxymethyl)-4-phenylpiperazine-1-carbonyl]-2,4-dimethylphenyl}amino)piperidin-1-yl]benzonitrile]
> 10	0.01 to 1	CNC(=O)c1ccccc1N1CCN(C(=O)c2cc(NC3CCN(c4ccccc4C#N)CC3)c(C)cc2C)CC1 [I-64]
> 10	0.01 to 1	CNC(=O)c1cc(F)ccc1N1CCN(C(=O)c2cc(NC3CCN(c4ccccc4C#N)CC3)c(C)cc2C)CC1 [I-65]
> 10	0.01 to 1	Cc1cc(C)c(C(=O)N2CCN(c3ccccc3S(N)(=O)=O)CC2)nc1NC1CCN(c2ccccc2C#N)CC1 [I-66, 2-(4-(6-(1-(2-Cyanophenyl)piperidin-4-ylamino)-3,5-dimethylpicolinoyl)piperazin-1-yl)benzenesulfonamide]
> 10	0.01 to 1	Cc1cc(C)c(C(=O)N2CCN(c3ccccc3S(N)(=O)=O)CC2)cc1NC1CCN(c2ccccc2C#N)CC1 [I-67]
> 10	0.01 to 1	Cc1cc(C)c(N(C)C2CCN(c3ccccc3C#N)CC2)cc1C(=O)N1CCN(c2ccccc2C#N)CC1 [I-68, 2-[4-({5-[4-(2-cyanophenyl)piperazine-1-carbonyl]-2,4-dimethylphenyl}(methyl)amino)piperidin-1-yl]benzonitrile]
> 10	0.01 to 1	Cc1cc(C)c(C(=O)N2CCN(c3cc(F)c(F)cc3C#N)C[C@@H]2C)cc1NC1CCN(c2ccccc2C#N)CC1 [I-69, 2-[(3S)-4-(5-{[1-(2-Cyanophenyl)piperidin-4-yl]amino}-2,4-dimethylbenzoyl)-3-methylpiperazin-1-yl]-4,5-difluorobenzonitrile]
